Legend:
CD4 T cells = experiment: mixed lymphocyte reaction (MLR) with TAMs as stimulator cells (FIG. 1c,d); type: cell-based, mouse; settings: treated TAMs as stimulators; 5 days
Procedure: MLR were carried out following standard procedures. Briefly, 100,000 MDSCs or TAMs from C57BL/6 mice were co-cultured in 96-well plates with 100,000 lymphocytes from BALB/c mice. Co-cultured cells were treated with 50 µM oleuropein and compared with control vehicle. After 5 days, T-lymphocyte activation, differentiation and proliferation were assessed by flow cytometry. T-cell activation and proliferation markers (Ki-67) and pro-inflammatory cytokine production (IL-2 and IFNγ) were evaluated by flow cytometry in CD4 and CD8 T cells as described before.
Surface and intracellular staining were carried out as described before with the following fluorochrome-conjugated antibody clones: AF488 anti-CD49d (R1-2), PE anti-CD4 (GK1.5), APCanti-CD8(53-6.7), brilliant Violet 510™ anti-I-A/I-E (M5/114.15.2,PE/Cyanine7anti-Ly-6G (1A8), and APC anti-CD80 (16-10A1) (Biolegend), FITC anti-IL-12 (C15.6) and BV421 anti-IL-2 (JES6-5H4) (BD Bioscience), APC-Vio® 770 anti-Ly-6C (REA796), PE REAfinity™ anti-F4/80 (REA126), and APC anti-CD68 (REA886) (Miltenyi), PerCP-Cyanine5.5 Anti-Human/Mouse CD11b (M1/70) (Tonbo), and AF488 anti-IFNγ (Clone XMG1.2) (BD Pharmigen). […]

m-MDSC = experiment: quantitative proteomics and Ingenuity Pathway Analysis of m-MDSC; type: cell-based, mouse
Procedure: (§1) Immunosuppressive myeloid cell subsets resembling tumor-infiltrating subsets (g-MDSCs, m-MDSCs and TAMs) were differentiated from mouse bone marrow following published procedures using conditioning medium produced by LLC tumor cells stably expressing GMCSF and MCSF cells. g- and m-MDSCs were purified using the myeloid-derived suppressor cell isolation kit (Miltenyi Biotec, Bergisch, Germany) according to manufacturer's recommendations. MDSCs and TAMs were seeded with 500 nM BML-275 or 50 μM oleuropein and incubated for seven days.
(§2) A unique proteomic experiment was carried out with five biological replicates per sample (m-MDSC, g-MDSC and TAM). Cells were homogenized in a lysis buffer containing 7 M urea, 2 M thiourea 50 mM DTT. The homogenates were spun down at 14000 g for 1 h at 15 °C. Before proteomic analysis, protein extracts were diluted with Laemmli sample buffer in 100 μL and loaded into a 0.75 mm thick polyacrylamide gel with a 4% stacking gel casted over a 12.5% resolving gel. The run was stopped as soon as the front entered 3 mm into the resolving gel so that the whole proteome became concentrated in the stacking/resolving gel interface. Bands were stained with Coomassie Brilliant Blue, excised from the gel and protein enzymatic cleavage was carried out with trypsin (Promega; 1:20, w/w) at 37 °C for 16 h as previously described. Purification and concentration of peptides was performed using C18 Zip Tip Solid Phase Extraction (Millipore).
(§3) Peptide mixtures were separated by reverse phase chromatography using an UltiMate 3000 UHLPC System (Thermo Scientific) fitted with an Aurora packed emitter column (lonopticks, 25 cm×75 μm ID, 1.6 μm C18). Samples were first loaded for desalting and concentration into an Acclaim PepMap column (ThermoFisher, 0.5 cm×300 μm ID, 5 μm C18) packed with the same chemistry as the separating column. Mobile phases were 100% water 0.1% formic acid (FA) (buffer A) and 100% Acetonitrile 0.1% FA (buffer B). Column gradient was developed in a 120 min two step gradient from 5% B to 20% B in 90 min and 20% B to 32% B in 30 min. Column was equilibrated in 95% B for 10 min and 5% B for 20 min. During the whole process, the precolumn was in line with the column and the flow maintained all along the gradient at 300 nl/min. The column temperature was maintained at 40 °C using an integrated column oven (PRSO-V2, Sonation, Biberach, Germany) and interfaced online with the Orbitrap Exploris 480 MS. Spray voltage were set to 2 kV, funnel RF level at 40, and heated capillary temperature at 300 °C. For DDA experiments full MS resolutions were set to […] at m/z 200 and full MS AGC target was set to Standard with an IT mode Auto. Mass range was set to 375-1500. AGC target value for fragment spectra was set to Standard with a resolution of 15,000 and 3 seconds for cycle time. The intensity threshold was kept at 8E3. Isolation width was set at 1.4 m/z. Normalized collision energy was set at 30%. All data were acquired in centroid mode using positive polarity and peptide match was set to off, and isotope exclusion was on.
(§4) Raw files were processed with MaxQuant v1.6.17.0 using the integrated Andromeda Search engine. All data were searched against a target/decoy version of the mouse Uniprot Reference Proteome with March 2021 release. First search peptide tolerance was set to 20 ppm, main search peptide tolerance was set to 4.5 ppm. Fragment mass tolerance was set to 20 ppm. Trypsin was specified as enzyme, […] carbamidomethylation of cysteine was specified as fixed modification and peptide N-terminal acetylation, oxidation of methionine, deamidation of asparagine and glutamine and pyro-glutamate formation from glutamine and glutamate were considered variable modifications with a total of two variable modifications per peptide. […]

TAMs [1] = experiment: quantitative proteomics and Ingenuity Pathway Analysis of TAM; type: cell-based, mouse
Procedure: as §1, §2, §3, §4

MDSCs = experiment: morphology of ex vivo MDSC cultures, phase contrast micrographs (FIG. 2a); type: cell-based, mouse; settings: MDSCs treated with oleuropein
Procedure: as §1

TAMs [2] = experiment: morphology of ex vivo TAM cultures, phase contrast micrographs (FIG. 2a); type: cell-based, mouse; settings: TAMs treated with oleuropein
Procedure: as §1

[3] = to elenolic acid and glucose; cited from earlier work

C/C=C1/[C@H](O[C@@H]2O[C@H](CO)[C@@H](O)[C@H](O)[C@H]2O)OC=C(C(=O)OC)[C@H]1CC(=O)OCCc1ccc(O)c(O)c1 [oleuropein]
CD4 T cell stimulation assessed by IFNγ and IL-2 production (CD4 T cells): potently stimulated | BAG2 signalling (m-MDSC; IPA, m-MDSC): activated | EIF2 signalling (m-MDSC; IPA, m-MDSC): activated | FAT10 signalling (m-MDSC; IPA, m-MDSC): down-modulated | NRF2-mediated oxidative stress response (m-MDSC; IPA, m-MDSC): downregulated | granzyme A signalling (m-MDSC; IPA, m-MDSC): activated | production of proinflammatory cytokines (m-MDSC; IPA, m-MDSC): down-modulated | sirtuin signalling (m-MDSC; IPA, m-MDSC): activated | upstream regulator PTEN (m-MDSC; IPA, m-MDSC): increase | upstream regulator methylprednisolone (m-MDSC; IPA, m-MDSC): decrease | effect over m-MDSC intracellular regulatory pathways (m-MDSC; m-MDSC): potent effect over m-MDSC intracellular regulatory pathways | proteins differentially regulated (m-MDSC; m-MDSC treated with oleuropein, data not shown): 912 proteins | activated macrophages and pro-inflammatory activities of macrophages (TAMs [1]): enhances | BAG2 signalling (TAMs [1]; IPA): downregulated | EIF2 signalling (TAMs [1]; IPA): upregulated | Flt3 signalling (TAMs [1]; IPA): upregulated | For-mediated (Fcr-mediated) phagocytosis signalling (TAMs [1]; IPA): upregulation | Hif1a signalling (TAMs [1]; IPA): downregulated | fmlp signalling (TAMs [1]; IPA): upregulated | immunosuppressive markers (TAMs [1]; IPA): downregulation | mTOR signalling (TAMs [1]; IPA): downregulated | For-mediated (Fcr-mediated) phagocytosis signalling (TAMs [1]; IPA, listed as Oleuropein): upregulated | morphology (MDSCs): acquired a dendritic cell-like morphology | morphology / phenotype (TAMs [2]): acquired an M1-like phenotype | decomposition by acid or enzymic hydrolysis [3]: decomposes easily
